From PMC12442081, “Combating Fuel Biocontamination: Tailored Antimicrobial Peptides and an Innovative Delivery Strategy” (ACS Applied Bio Materials, 2025)
Where no end group is shown, it is not given here.

Columns and labels:
[1] = system: Bacillus licheniformis (BL) ATCC 14580; type: cell-based; conditions: ATCC 14580
Method: (§1) All of the bacterial species were grown overnight at 37 °C in LB broth. 10^7 CFU/mL of cells were resuspended in fresh culture and grown until the mid log phase. , The bacterial cells were adjusted to a concentration of 5 × 10^5 CFU/mL to quantify the MIC. Equal volumes of the respective bacterial cultures were incubated with the serially diluted peptides in 96-well microtiter plate and incubated overnight at 37 °C in ambient air. Microorganisms without peptides were treated as the positive control, while uninoculated broth was used as the negative control. The MIC was taken as the lowest peptide concentration at which observable bacteria growth was inhibited, as measured by a microplate reader (Biotek Synergy H1 microplate reader). Experiments were performed in triplicates, and the mean MIC values were determined. A similar study was performed to understand the effect of peptide purity, i.e., ranging from 70 to 95%, on the peptide MIC.

[2] = system: Kocuria rosea (KR) ATCC 186; type: cell-based
Method: as §1

[3] = system: Sphingomonas paucimobilis (SP); type: cell-based
Method: as §1

[4] = HPLC retention time as a function of peptide hydrophobicity; type: physicochemical; conditions: chromatographic, Polaris 5 C18-A reverse phase, 0.1% TFA water / 0.1% TFA acetonitrile gradient, 30 min, 300 μM peptide
Method: The purity of the peptides was ascertained by high-performance liquid chromatography (HPLC) using Polaris 5 C18-A […] × 4.6 mm reverse phase Zorbax columns from Agilent Technologies. The buffer system contained 0.1% (v/v) TFA in 100% water and 0.1% (v/v) TFA in 100% acetonitrile. Each peptide sample contained 300 μM peptides dissolved in an acetonitrile–water (1:4) mixture. A constant gradient of the two solvent systems was used to generate the chromatogram for 30 min after sample injection.

[5] = system: Bacillus licheniformis (BL); assay: Effectiveness of peptides on spiked fuel samples (aqueous layer); type: cell-based; parameters: key: (+) =1 (implying peptide activity in fuel environment); (X) = 0 (implying no activity in the desired range, indicated by microbial proliferation); Fuel x = -1(implying no activity in fuel environment); conditions: initial screening in spiked fuel
Method: (§2) To study the partitioning of microbes in fuel tanks, filter-sterilized fuel was mixed with BH medium in a 1:1 (v/v) ratio. The inoculum was added to the aqueous phase at the bottom to simulate growth in the aqueous layer of fuel tanks and incubated aerobically at 30 °C for 30 days. Visible growth was assessed, and aliquots from both the aqueous and fuel phases were plated on nutrient agar plates to evaluate microbial growth. Peptides were initially added to the aqueous layer of microbially spiked fuel samples for screening the effectiveness in the fuel environment. The study was further extended over a longer duration, and incubated under aerobic conditions at 30 °C for 30 days. Microbial growth was monitored at regular intervals by plating aliquots from the aqueous layer on the nutrient agar plates.
(§3) The engineered peptides were administered at their respective MICs to the aqueous layer of simulated fuel samples, and samples from both the aqueous and solvent (fuel) layers were removed at intervals of 7, 14, 21, and 30 days and plated on LBA plates to assess cell viability (Table S5).

[6] = system: Dermacoccus nishinomiyaensis (DN); assay: as above; type: cell-based; parameters: key: (+) =1 (implying peptide activity in fuel environment); (X) = 0 (implying no activity in the desired range, indicated by microbial proliferation); Fuel x = -1(implying no activity in fuel environment); conditions: initial screening in spiked fuel
Method: as §2, §3

Hormoconis resinae (HR) = assay: as above; type: cell-based; parameters: key: (+) =1 (implying peptide activity in fuel environment); (X) = 0 (implying no activity in the desired range, indicated by microbial proliferation); Fuel x = -1(implying no activity in fuel environment); conditions: initial screening in spiked fuel
Method: as §2, §3

Kocuria rosea (KR) = assay: as above; type: cell-based; parameters: key: (+) =1 (implying peptide activity in fuel environment); (X) = 0 (implying no activity in the desired range, indicated by microbial proliferation); Fuel x = -1(implying no activity in fuel environment); conditions: initial screening in spiked fuel
Method: as §2, §3

[7] = system: Macrococcus caseolyticus (MC); assay: as above; type: cell-based; parameters: key: (+) =1 (implying peptide activity in fuel environment); (X) = 0 (implying no activity in the desired range, indicated by microbial proliferation); Fuel x = -1(implying no activity in fuel environment); conditions: initial screening in spiked fuel
Method: as §2, §3

[8] = system: Micrococcus yunnanensis (MY); assay: as above; type: cell-based; parameters: key: (+) =1 (implying peptide activity in fuel environment); (X) = 0 (implying no activity in the desired range, indicated by microbial proliferation); Fuel x = -1(implying no activity in fuel environment); conditions: initial screening in spiked fuel
Method: as §2, §3

[9] = system: Pseudomonas aeruginosa (PA); assay: as above; type: cell-based; parameters: key: (+) =1 (implying peptide activity in fuel environment); (X) = 0 (implying no activity in the desired range, indicated by microbial proliferation); Fuel x = -1(implying no activity in fuel environment); conditions: initial screening in spiked fuel
Method: as §2, §3

Roseomonas mucosa (RM) = assay: as above; type: cell-based; parameters: key: (+) =1 (implying peptide activity in fuel environment); (X) = 0 (implying no activity in the desired range, indicated by microbial proliferation); Fuel x = -1(implying no activity in fuel environment); conditions: initial screening in spiked fuel
Method: as §2, §3

[10] = system: Sphingomonas paucimobilis (SP); assay: as above; type: cell-based; parameters: key: (+) =1 (implying peptide activity in fuel environment); (X) = 0 (implying no activity in the desired range, indicated by microbial proliferation); Fuel x = -1(implying no activity in fuel environment); conditions: initial screening in spiked fuel
Method: as §2, §3

[11] = system: microbial clusters MY, KR, DN, MC, BL, RM, SP, PA, HR; assay: Broad-spectrum activity score (in-house scoring matrix); conditions: sum over 9 microbial clusters: (+) = 1, (X) = 0, Fuel x = -1
Method: Table S4. Summarizing the broad-spectrum activity of the peptides, considering the MIC value/ efficacy to control microbial growth upon fuel co-incubation
Peptides Bacterial clusters Fungal
Actinobacteria Firmicutes Proteobacteria Asco- […]
Peptides identified based on the scoring matrix, where (+) =1 (implying peptide activity in fuel environment); (X) = 0 (implying no activity in the desired range, indicated by microbial proliferation); Fuel x = -1(implying no activity in fuel environment).
Clearly, P17 is the best performing peptide in vitro across diverse microbial phyla as well as when incubated in the fuel environment. Based on the activity of the selected peptides, the best

[12] = system: Macrococcus caseolyticus (MC) ATCC 13548; type: cell-based
Method: as §1

[13] = system: Micrococcus yunnanensis (MY) ATCC 12698; type: cell-based
Method: as §1

[14] = system: Dermacoccus nishinomiyaensis (DN) ATCC 29093; type: cell-based
Method: as §1

[15] = system: Pseudomonas aeruginosa (PA) ATCC 39327; type: cell-based; conditions: ATCC 39327
Method: as §1

[16] = system: Hormoconis resinae (HR) ATCC 20267; type: cell-based
Method: as §1
The same experimental procedures that were conducted for the antibacterial assay were used to determine the MIC of the peptides against the fungal strain, H. resinae.

Compound	MIC [1] [µM]	MIC [2] [µM]	MIC [3] [µM]	R t, retention time of peptide on HPLC column as a function of peptide hydrophobicity [4] [min]	activity considering MIC value/efficacy upon fuel co-incubation [5]	activity considering MIC value/efficacy upon fuel co-incubation [6]	activity considering MIC value/efficacy upon fuel co-incubation (Hormoconis resinae (HR))	activity considering MIC value/efficacy upon fuel co-incubation (Kocuria rosea (KR))	activity considering MIC value/efficacy upon fuel co-incubation [7]	activity considering MIC value/efficacy upon fuel co-incubation [8]	activity considering MIC value/efficacy upon fuel co-incubation [9]	activity considering MIC value/efficacy upon fuel co-incubation (Roseomonas mucosa (RM))	activity considering MIC value/efficacy upon fuel co-incubation [10]	Score [11]	MIC [12] [µM]	MIC [13] [µM]	MIC [14] [µM]	MIC [15] [µM]	MIC [16] [µM]
CC(C)C[C@H](NC(=O)[C@@H](N)Cc1ccc(O)cc1)C(=O)N1CCC[C@H]1C(=O)N[C@@H](Cc1c[nH]c2ccccc12)C(=O)N[C@@H](CCCCN)C(=O)N[C@@H](Cc1c[nH]c2ccccc12)C(=O)N1CCC[C@H]1C(=O)N[C@@H](Cc1c[nH]c2ccccc12)C(=O)N[C@@H](Cc1c[nH]c2ccccc12)C(=O)N1CCC[C@H]1C(=O)N[C@@H](Cc1c[nH]c2ccccc12)C(=O)N[C@@H](CCCNC(=N)N)C(=O)N[C@@H](CCCNC(=N)N)C(=O)O [P14]	3.9	0.9	0.9	12.279	+	X	X	Fuel x	X	X	X	X	+	1					
CC[C@H](C)[C@H](N)C(=O)N[C@@H](CC(C)C)C(=O)N[C@@H](Cc1ccccc1)C(=O)N[C@@H](Cc1c[nH]c2ccccc12)C(=O)N[C@@H](CCCCN)C(=O)N[C@@H](Cc1c[nH]c2ccccc12)C(=O)N1CCC[C@H]1C(=O)N[C@@H](Cc1c[nH]c2ccccc12)C(=O)N[C@@H](Cc1c[nH]c2ccccc12)C(=O)N1CCC[C@H]1C(=O)N[C@@H](Cc1c[nH]c2ccccc12)C(=O)N[C@@H](CCCNC(=N)N)C(=O)N[C@@H](CCCNC(=N)N)C(=O)O [P16]	0.9	1.9	0.9	14.075	+	X	X	+	X	+	X	X	+	4	125	0.9			
CC[C@H](C)[C@H](N)C(=O)N[C@@H](CC(C)C)C(=O)N[C@H](C(=O)N[C@@H](Cc1c[nH]c2ccccc12)C(=O)N[C@@H](CCCCN)C(=O)N[C@@H](Cc1c[nH]c2ccccc12)C(=O)N1CCC[C@H]1C(=O)N[C@@H](Cc1c[nH]c2ccccc12)C(=O)N[C@@H](Cc1c[nH]c2ccccc12)C(=O)N1CCC[C@H]1C(=O)N[C@@H](Cc1c[nH]c2ccccc12)C(=O)N[C@@H](CCCNC(=N)N)C(=O)N[C@@H](CCCNC(=N)N)C(=O)O)[C@@H](C)CC [P18]	1.9	0.9	0.9	13.314	+	Fuel x	X	+	X	+	X	X	+	3	31.25	0.9	0.9		
CC[C@H](C)[C@H](N)C(=O)N[C@@H](CC(C)C)C(=O)N[C@@H](CC(C)C)C(=O)N[C@@H](Cc1c[nH]c2ccccc12)C(=O)N[C@@H](CCCCN)C(=O)N[C@@H](Cc1c[nH]c2ccccc12)C(=O)N1CCC[C@H]1C(=O)N[C@@H](Cc1c[nH]c2ccccc12)C(=O)N[C@@H](Cc1c[nH]c2ccccc12)C(=O)N1CCC[C@H]1C(=O)N[C@@H](Cc1c[nH]c2ccccc12)C(=O)N[C@@H](CCCNC(=N)N)C(=O)N[C@@H](CCCNC(=N)N)C(=O)O [P19]	1.9	3.9	0.9	13.667	+	+	X	Fuel x	X	+	X	X	+	3		0.9	0.9		
ILPWKWVWWPWRR [P8]	1.9		3.91	12.168	+	Fuel x	X	X	X	+	X	X	+	2		0.9	0.9	15.625	31.25
